Experimental data as given in US20050282818A1, “Ubiquitin ligase inhibitors” (Rigel Pharmaceuticals, Inc., priority 2004, published 2005).

Assays:
[1] = test system: ICAM-1 expression in A549 cells; assay: ICAM assay (IL-1 induced ICAM-1/CD54 expression in A549 cells); assay type: cell-based, human; details: Homo sapiens, A549, ICAM assay
In short: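 Luminescent immunostaining (anti-CD54, then anti-mouse IgG, 1 h) quantifies ICAM-1 on A549 cells induced 4 h at 37° C by IL-1 (4 μl of 25 ng/ml added). Compound is added 1 h before the cytokine to cells plated overnight at 10,000 per well.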

TRAF6/Uev1A/Ubc13 = molecular target: T1, TRAF6/Uev1A/Ubc13 (Homo sapiens, UniProt Q9Y4K3); assay: TRAF6/Uev1A/Ubc13 plate-based ubiquitin ligase assay; assay type: biochemical
T1 sequence (Q9Y4K3 1-522): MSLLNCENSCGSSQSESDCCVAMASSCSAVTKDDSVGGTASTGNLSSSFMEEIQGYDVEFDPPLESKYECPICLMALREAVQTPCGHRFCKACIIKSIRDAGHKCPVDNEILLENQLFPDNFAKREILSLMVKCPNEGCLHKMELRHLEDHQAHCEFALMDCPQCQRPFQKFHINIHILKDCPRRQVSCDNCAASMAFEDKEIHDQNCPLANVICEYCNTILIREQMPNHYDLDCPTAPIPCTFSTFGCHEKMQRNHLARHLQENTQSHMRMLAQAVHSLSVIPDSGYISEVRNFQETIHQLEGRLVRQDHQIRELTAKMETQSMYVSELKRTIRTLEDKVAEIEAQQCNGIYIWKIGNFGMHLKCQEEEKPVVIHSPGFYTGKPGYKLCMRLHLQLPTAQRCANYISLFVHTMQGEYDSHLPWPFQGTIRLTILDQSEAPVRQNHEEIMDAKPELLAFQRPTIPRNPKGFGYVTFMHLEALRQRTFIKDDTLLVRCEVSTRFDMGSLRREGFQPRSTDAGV
In short: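 Ligase activity was read as luminescence from anti-Flag/HRP detection of Flag-ubiquitin bound to casein-blocked Ni-plates alongside His-ubiquitin after a 1 h room-temperature reaction. Buffer: 62.5 mM Tris pH 7.5, 6.25 mM MgCl2, 1.0 mM DTT, 2 μM ATP; E1, Uev1a/Ubc13 and TRAF6 added last to start. IC50s derived across compound concentrations.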

APC11/APC2 = APC11/APC2 (Homo sapiens, UniProt Q9NYG5+Q9UJX6); assay: APC-11/APC-2 ligase assay (APC auto ubiquitination); assay type: biochemical; details: APC assay
Sequence of APC11/APC2 (Q9NYG5 whole entry): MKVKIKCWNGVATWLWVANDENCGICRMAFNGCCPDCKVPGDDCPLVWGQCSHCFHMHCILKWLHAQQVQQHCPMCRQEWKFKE
Sequence of APC11/APC2 (Q9UJX6 whole entry): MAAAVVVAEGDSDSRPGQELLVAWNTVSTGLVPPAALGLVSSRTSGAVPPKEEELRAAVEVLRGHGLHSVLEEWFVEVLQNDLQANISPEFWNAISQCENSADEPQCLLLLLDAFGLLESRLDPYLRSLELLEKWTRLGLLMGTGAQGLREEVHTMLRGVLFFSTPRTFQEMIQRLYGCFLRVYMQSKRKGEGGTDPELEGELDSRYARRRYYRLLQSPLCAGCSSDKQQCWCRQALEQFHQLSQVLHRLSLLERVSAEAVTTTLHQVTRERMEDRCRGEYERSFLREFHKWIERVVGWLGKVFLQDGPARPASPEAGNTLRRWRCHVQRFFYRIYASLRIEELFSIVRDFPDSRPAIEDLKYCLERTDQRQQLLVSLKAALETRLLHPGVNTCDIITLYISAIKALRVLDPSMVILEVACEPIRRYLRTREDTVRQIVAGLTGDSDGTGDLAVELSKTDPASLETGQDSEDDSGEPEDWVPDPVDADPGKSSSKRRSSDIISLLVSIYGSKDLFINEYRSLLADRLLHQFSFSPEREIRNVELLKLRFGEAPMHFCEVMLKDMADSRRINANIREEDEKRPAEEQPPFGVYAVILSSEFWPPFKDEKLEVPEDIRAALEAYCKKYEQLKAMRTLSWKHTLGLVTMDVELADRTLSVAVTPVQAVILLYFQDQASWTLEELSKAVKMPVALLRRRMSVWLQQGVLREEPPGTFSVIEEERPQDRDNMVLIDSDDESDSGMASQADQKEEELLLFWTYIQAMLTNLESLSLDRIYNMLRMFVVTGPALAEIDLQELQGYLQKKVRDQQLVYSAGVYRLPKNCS
In short: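 His-tagged APC was captured on nickel plates with human E1 (5 ng/well), UbcH5c (20 ng/well), APC (100 ng/well) and Flag-ubiquitin (100 ng/well) in a Tris pH 7.6 reaction buffer containing 2.5 mM ATP, for 1 hour at room temperature. Read-out was anti-Flag/HRP chemiluminescence. IC50 was set against a DMSO control, typically from 6 or 8 concentrations.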

IC50 [1] [µM]	IC50 (TRAF6/Uev1A/Ubc13) [µM]	IC50 (APC11/APC2) [µM]	SMILES
≥ 20	≥ 20	1 to 20	CC(=O)Nc1ccc(-c2ccc(C(C)(C)C)cc2)c2nonc12 [compound 453, N-(7-(4-t-butylphenyl)-2,1,3-benzoxadiazol-4-yl)acetamide]
≥ 20	≥ 20	1 to 20	CC(C)(C)c1ccc(-c2cc3cc(O)ccc3c3nonc23)cc1 [compound 454]
1 to 20	1 to 20	1 to 20	O=[N+]([O-])c1ccc(-c2ccc(Oc3ccccc3)cc2)c2nonc12 [compound 464, 4-nitro-7-(4-phenoxyphenyl)-2,1,3-benzoxadiazole]
1 to 20	≥ 20	≥ 20	COc1ccc(-c2ccc([N+](=O)[O-])c3nonc23)cc1OC [compound 465, 4-(3,4-dimethoxyphenyl)-7-nitro-2,1,3-benzoxadiazole]
1 to 20	1 to 20	≥ 20	COc1ccc(-c2ccc([N+](=O)[O-])c3nonc23)cc1 [compound 466, 4-(4-methoxyphenyl)-7-nitro-2,1,3-benzoxadiazole]
1 to 20	1 to 20	1 to 20	O=[N+]([O-])c1ccc(-c2ccc3c(c2)OCO3)c2nonc12 [compound 467, 4-(benzodioxol-5-yl)-7-nitro-2,1,3-benzoxadiazole]
1 to 20	≥ 20	1 to 20	Cc1ccc(-c2ccc([N+](=O)[O-])c3nonc23)cc1 [compound 468, 4-(4-methylphenyl)-7-nitro-2,1,3-benzoxadiazole]
1 to 20	≥ 20	1 to 20	O=[N+]([O-])c1ccc(-c2cccc3ccccc23)c2nonc12 [compound 469, 4-(naphthalen-1-yl)-7-nitro-2,1,3-benzoxadiazole]
1 to 20	≥ 20	1 to 20	Cc1cccc(-c2ccc([N+](=O)[O-])c3nonc23)c1C [compound 470, 4-(2,3-dimethylphenyl)-7-nitro-2,1,3-benzoxadiazole]
1 to 20	≥ 20	1 to 20	Cc1ccc(C)c(-c2ccc([N+](=O)[O-])c3nonc23)c1 [compound 471, 4-(2,5-dimethylphenyl)-7-nitro-2,1,3-benzoxadiazole]
1 to 20	1 to 20	1 to 20	Cc1ccc(-c2ccc([N+](=O)[O-])c3nonc23)cc1C [compound 472, 4-(3,4-dimethylphenyl)-7-nitro-2,1,3-benzoxadiazole]
≥ 20	≥ 20	≥ 20	FC(F)(F)c1cc(-c2ccccc2)c2nonc2c1 [compound 474, 4-phenyl-6-(trifluoromethyl)-2,1,3-benzoxadiazole]
≥ 20	≥ 20	≥ 20	Cc1ccc(-c2cc([N+](=O)[O-])cc3nonc23)cc1 [compound 476, 6-nitro-4-p-tolyl-2,1,3-benzoxadiazole]
1 to 20	≥ 20	1 to 20	Cc1cccc(-c2cc([N+](=O)[O-])cc3nonc23)c1 [compound 478, 6-nitro-4-m-tolyl-2,1,3-benzoxadiazole]

More lines, now with the values behind:

SMILES	IC50 [1] [µM]	IC50 (TRAF6/Uev1A/Ubc13) [µM]	IC50 (APC11/APC2) [µM]
O=S(=O)(NCC1CCCCC1)c1ccc(Cl)c2nonc12 [compound 447, 7-chloro-N-(cyclohexylmethyl)-2,1,3-benzoxadiazole-4-sulfonamide]	1 to 20	≥ 20	≥ 20
O=S(=O)(NC1CCCCC1)c1ccc(Cl)c2nonc12 [compound 448, 7-chloro-N-(cyclohexyl)-2,1,3-benzoxadiazole-4-sulfonamide]	1 to 20	≥ 20	≥ 20
O=S(=O)(NCC1CC1)c1ccc(Cl)c2nonc12 [compound 449, 7-chloro-N-(cyclopropylmethyl)-2,1,3-benzoxadiazole-4-sulfonamide]	≥ 20	≥ 20	≥ 20
COc1ccc2nonc2c1-c1cc(C)cc(C)c1 [compound 450, 4-(3,5-dimethylphenyl)-5-methoxy-2,1,3-benzoxadiazole]	≥ 20	≥ 20	≥ 20
O=[N+]([O-])c1ccc(C2=CCCCC2)c2nonc12 [compound 451, 4-cyclohexenyl-7-nitro-2,1,3-benzoxadiazole]	1 to 20	≥ 20	≥ 20
Cc1ccc2nsnc2c1S(=O)(=O)Nc1ccccc1F [compound 452, N-(2-fluorophenyl)-5-methyl-2,1,3-benzthiadiazole-4-sulfonamide]	≥ 20	≥ 20	≥ 20
O=S(=O)(NCc1ccncc1)c1ccc(Cl)c2nonc12 [compound 455, 7-chloro-N-(pyridin-4-ylmethyl)-2,1,3-benzoxadiazole-4-sulfonamide]	1 to 20	≥ 20	≥ 20
O=C1CCCN1CCCNS(=O)(=O)c1ccc(Cl)c2nonc12 [compound 456, 7-chloro-N-(3-[2-oxopyrrolidin-1-yl]propyl)-2,1,3-benzoxadiazole-4-sulfonamide]	≥ 20	≥ 20	≥ 20
Cc1cccc(-c2cc3nsnc3cc2F)c1C [compound 457, 5-(2,3-dimethylphenyl)-6-fluoro-2,1,3-benzthiadiazole]	≥ 20	≥ 20	≥ 20
Fc1cc2nsnc2cc1-c1ccccc1 [compound 458, 5-fluoro-6-phenyl-2,1,3-benzthiadiazole]	≥ 20	≥ 20	≥ 20
Cc1ccc(-c2cc3nsnc3cc2F)cc1C [compound 459, 5-(3,4-dimethylphenyl)-6-fluoro-2,1,3-benzthiadiazole]	≥ 20	≥ 20	≥ 20
Fc1cc2nsnc2cc1-c1cccc2c1OCO2 [compound 460, 5-(benzodioxol-4-yl)-6-fluoro-2,1,3-benzthiadiazole]	≥ 20	≥ 20	≥ 20
Cc1cc(C)cc(-c2cc3nsnc3cc2F)c1 [compound 461, 5-(3,5-dimethylphenyl)-6-fluoro-2,1,3-benzthiadiazole]	≥ 20	≥ 20	≥ 20
COc1ccc(-c2cc3nsnc3cc2F)cc1 [compound 462, 5-(4-methoxyphenyl)-6-fluoro-2,1,3-benzthiadiazole]	≥ 20	≥ 20	≥ 20
COc1ccc(-c2cc3nsnc3cc2F)cc1OC [compound 463, 5-(3,4-dimethoxyphenyl)-6-fluoro-2,1,3-benzthiadiazole]	≥ 20	≥ 20	≥ 20
Cc1cccc(-c2cc(C(F)(F)F)cc3nonc23)c1C [compound 473, 4-(2,3-dimethylphenyl)-6-(trifluoromethyl)-2,1,3-benzoxadiazole]	≥ 20	≥ 20	≥ 20
FC(F)(F)c1cc(-c2ccc3c(c2)OCO3)c2nonc2c1 [compound 475, 4-(benzodioxol-5-yl)-6-(trifluoromethyl)-2,1,3-benzoxadiazole]	≥ 20	≥ 20	≥ 20
O=[N+]([O-])c1cc(-c2ccc(C(F)(F)F)cc2C(F)(F)F)c2nonc2c1 [compound 477, 4-(2,4-bis[trifluoromethyl]phenyl)-6-nitro-2,1,3-benzoxadiazole]	1 to 20	≥ 20	1 to 20
